Test results from patent US20250243171A1, “QUINAZOLINE COMPOUNDS FOR TREATMENT OF DISEASE” (Arthrosi Therapeutics, Inc., priority 2021, published 2025).

Assays:
Assay in all cases: EC50 assay: Ba/F3 stable cell proliferation (CCK-8, 72 h)
Type in all cases: cell-based
[1] = molecular target: T1, Ba/F3 stable cells (Homo sapiens, UniProt P00533, DUP771-773, cells depend on it); conditions: Ba/F3-EGFR H773-V774insNPH cells
T1 construct: EC50 Ba/F3-EGFR H773-V774insNPH; other: Ba/F3-EGFR H773-V774insNPH cells, 72 h, CCK-8
Outline: (§1)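 Ba/F3 stable cells were seeded at 4,000 cells/90 μL/well in 96-well plates and held 2 h at 37° C. in 5% CO2, then given 10 μL of serially titrated compound (0.1% DMSO final). After 72 h at 37° C., CCK-8 reagent was added for 4 hours and absorbance read at 450 nm to derive EC50.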

[2] = molecular target: T2, Ba/F3 stable cells (Homo sapiens, UniProt P00533, INS763FQEA, cells depend on it); conditions: Ba/F3-EGFR A763-Y764insFQEA cells
T2 construct: EC50 Ba/F3-EGFR A763-Y764insFQEA; other: Ba/F3-EGFR A763-Y764insFQEA cells, 72 h, CCK-8
Outline: as §1

[3] = molecular target: T3, Ba/F3 stable cells (Homo sapiens, UniProt P00533, T790M/L858R, cells depend on it); conditions: Ba/F3-EGFR L858R-T790M cells
T3 construct: EC50 Ba/F3-EGFR L858R-T790M; other: Ba/F3-EGFR L858R-T790M cells, 72 h, CCK-8
Outline: as §1

[4] = molecular target: T4, Ba/F3 stable cells (Homo sapiens, UniProt P04626, DUP772-775, cells depend on it); conditions: Ba/F3-HER2 A775-G776insYVMA cells
T4 construct: EC50 Ba/F3-HER2 A775-G776insYVMA; other: Ba/F3-HER2 A775-G776insYVMA cells, 72 h, CCK-8
Outline: as §1

[5] = molecular target: T5, Ba/F3 stable cells (Homo sapiens, UniProt P00533, DUP767-769, cells depend on it); conditions: Ba/F3-EGFR V769-D770insASV cells
T5 construct: EC50 Ba/F3-EGFR V769-D770insASV; other: Ba/F3-EGFR V769-D770insASV cells, 72 h, CCK-8
Outline: as §1

[6] = molecular target: T6, Ba/F3 stable cells (Homo sapiens, UniProt P00533, DUP768-770, cells depend on it); conditions: Ba/F3-EGFR D770-N771insSVD cells
T6 construct: EC50 Ba/F3-EGFR D770-N771insSVD; other: Ba/F3-EGFR D770-N771insSVD cells, 72 h, CCK-8
Outline: as §1

T1 sequence (P00533 with tags, fused parts or gaps DUP771-773): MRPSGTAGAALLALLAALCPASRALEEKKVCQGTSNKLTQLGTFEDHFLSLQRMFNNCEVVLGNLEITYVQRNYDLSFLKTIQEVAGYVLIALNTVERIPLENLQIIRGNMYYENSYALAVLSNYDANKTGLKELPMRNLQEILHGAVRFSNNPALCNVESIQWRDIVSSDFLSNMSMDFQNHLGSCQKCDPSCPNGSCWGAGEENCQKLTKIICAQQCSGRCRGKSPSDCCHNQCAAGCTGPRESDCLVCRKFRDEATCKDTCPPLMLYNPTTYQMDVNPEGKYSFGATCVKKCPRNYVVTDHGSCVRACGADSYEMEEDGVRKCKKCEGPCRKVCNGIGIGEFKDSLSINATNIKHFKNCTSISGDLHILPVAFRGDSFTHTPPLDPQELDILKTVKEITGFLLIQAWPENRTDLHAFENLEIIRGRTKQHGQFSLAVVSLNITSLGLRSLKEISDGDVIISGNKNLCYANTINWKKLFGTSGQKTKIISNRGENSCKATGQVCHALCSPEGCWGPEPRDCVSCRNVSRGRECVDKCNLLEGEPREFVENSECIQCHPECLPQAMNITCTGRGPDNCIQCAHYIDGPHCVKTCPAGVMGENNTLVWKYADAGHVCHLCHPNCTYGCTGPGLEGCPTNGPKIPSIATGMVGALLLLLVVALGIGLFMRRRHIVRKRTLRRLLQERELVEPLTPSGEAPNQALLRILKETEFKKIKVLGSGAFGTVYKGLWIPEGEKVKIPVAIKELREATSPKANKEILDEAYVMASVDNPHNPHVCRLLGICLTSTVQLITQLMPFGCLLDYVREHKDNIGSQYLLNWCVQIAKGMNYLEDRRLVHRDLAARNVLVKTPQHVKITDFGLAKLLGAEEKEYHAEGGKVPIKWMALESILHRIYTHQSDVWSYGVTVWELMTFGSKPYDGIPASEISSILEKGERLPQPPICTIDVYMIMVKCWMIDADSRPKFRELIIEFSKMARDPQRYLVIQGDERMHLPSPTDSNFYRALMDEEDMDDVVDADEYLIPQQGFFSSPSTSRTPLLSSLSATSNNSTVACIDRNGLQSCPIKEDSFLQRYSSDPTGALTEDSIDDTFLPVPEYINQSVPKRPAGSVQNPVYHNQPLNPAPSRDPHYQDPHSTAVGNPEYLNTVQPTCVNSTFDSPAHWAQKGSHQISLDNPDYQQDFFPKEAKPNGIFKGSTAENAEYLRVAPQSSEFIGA
T3 sequence (P00533 whole entry T790M/L858R): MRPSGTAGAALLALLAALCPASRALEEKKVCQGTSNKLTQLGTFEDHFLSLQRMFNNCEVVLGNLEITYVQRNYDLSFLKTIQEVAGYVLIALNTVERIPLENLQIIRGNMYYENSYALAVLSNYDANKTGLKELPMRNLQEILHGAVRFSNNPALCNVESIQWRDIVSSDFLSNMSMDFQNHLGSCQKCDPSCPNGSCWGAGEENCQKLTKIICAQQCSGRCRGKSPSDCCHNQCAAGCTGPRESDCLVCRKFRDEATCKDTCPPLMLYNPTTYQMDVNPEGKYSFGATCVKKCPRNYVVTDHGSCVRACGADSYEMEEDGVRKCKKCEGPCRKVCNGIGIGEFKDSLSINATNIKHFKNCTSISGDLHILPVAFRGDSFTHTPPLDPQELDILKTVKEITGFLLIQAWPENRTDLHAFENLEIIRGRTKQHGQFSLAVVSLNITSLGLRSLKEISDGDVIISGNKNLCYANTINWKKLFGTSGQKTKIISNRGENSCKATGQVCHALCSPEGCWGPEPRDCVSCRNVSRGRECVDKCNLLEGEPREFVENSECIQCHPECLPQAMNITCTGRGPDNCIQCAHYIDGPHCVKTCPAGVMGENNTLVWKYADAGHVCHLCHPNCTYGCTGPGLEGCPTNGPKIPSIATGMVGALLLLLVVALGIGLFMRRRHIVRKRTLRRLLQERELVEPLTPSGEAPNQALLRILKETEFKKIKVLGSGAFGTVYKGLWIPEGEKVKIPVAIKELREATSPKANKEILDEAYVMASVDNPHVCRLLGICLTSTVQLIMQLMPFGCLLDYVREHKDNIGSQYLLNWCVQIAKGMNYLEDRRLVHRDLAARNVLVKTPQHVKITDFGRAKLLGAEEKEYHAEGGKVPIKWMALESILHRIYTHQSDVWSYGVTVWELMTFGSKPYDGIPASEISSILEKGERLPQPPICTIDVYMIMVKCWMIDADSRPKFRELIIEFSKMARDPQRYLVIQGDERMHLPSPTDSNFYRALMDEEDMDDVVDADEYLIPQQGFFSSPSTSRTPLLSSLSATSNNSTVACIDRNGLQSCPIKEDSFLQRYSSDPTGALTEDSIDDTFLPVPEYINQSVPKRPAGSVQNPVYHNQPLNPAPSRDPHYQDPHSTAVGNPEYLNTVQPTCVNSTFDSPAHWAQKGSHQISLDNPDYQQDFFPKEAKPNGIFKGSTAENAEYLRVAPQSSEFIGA
T2 sequence (P00533 with tags, fused parts or gaps INS763FQEA): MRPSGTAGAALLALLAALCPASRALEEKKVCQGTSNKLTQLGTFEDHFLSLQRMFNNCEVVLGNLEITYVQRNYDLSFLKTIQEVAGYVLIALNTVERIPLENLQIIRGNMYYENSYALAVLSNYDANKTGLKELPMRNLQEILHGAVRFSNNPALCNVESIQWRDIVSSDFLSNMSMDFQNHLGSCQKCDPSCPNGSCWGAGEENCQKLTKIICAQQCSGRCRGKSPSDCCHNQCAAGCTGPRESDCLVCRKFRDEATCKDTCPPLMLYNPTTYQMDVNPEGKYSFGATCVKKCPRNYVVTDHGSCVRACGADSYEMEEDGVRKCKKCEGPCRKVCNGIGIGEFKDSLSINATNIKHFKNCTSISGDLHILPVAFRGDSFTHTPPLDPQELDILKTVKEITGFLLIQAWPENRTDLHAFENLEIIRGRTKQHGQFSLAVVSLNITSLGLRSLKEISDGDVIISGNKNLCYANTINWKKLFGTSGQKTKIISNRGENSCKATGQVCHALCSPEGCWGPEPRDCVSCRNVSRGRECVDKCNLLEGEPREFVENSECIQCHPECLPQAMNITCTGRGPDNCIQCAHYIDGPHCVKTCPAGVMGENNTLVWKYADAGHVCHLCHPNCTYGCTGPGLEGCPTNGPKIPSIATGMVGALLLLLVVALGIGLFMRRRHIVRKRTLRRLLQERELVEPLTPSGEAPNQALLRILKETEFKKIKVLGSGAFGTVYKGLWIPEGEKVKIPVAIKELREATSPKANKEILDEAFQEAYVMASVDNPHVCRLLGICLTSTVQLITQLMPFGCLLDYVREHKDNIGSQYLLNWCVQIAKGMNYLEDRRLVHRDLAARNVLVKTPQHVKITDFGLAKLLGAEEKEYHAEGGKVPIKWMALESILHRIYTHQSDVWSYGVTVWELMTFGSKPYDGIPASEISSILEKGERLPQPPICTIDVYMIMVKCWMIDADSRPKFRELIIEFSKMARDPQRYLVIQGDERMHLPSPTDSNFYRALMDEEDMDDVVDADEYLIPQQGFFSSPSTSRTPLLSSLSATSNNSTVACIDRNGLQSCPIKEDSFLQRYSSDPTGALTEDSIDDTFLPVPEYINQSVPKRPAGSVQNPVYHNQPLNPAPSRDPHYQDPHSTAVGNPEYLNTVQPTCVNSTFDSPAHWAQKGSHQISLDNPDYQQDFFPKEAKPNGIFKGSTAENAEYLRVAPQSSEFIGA
T5 sequence (P00533 with tags, fused parts or gaps DUP767-769): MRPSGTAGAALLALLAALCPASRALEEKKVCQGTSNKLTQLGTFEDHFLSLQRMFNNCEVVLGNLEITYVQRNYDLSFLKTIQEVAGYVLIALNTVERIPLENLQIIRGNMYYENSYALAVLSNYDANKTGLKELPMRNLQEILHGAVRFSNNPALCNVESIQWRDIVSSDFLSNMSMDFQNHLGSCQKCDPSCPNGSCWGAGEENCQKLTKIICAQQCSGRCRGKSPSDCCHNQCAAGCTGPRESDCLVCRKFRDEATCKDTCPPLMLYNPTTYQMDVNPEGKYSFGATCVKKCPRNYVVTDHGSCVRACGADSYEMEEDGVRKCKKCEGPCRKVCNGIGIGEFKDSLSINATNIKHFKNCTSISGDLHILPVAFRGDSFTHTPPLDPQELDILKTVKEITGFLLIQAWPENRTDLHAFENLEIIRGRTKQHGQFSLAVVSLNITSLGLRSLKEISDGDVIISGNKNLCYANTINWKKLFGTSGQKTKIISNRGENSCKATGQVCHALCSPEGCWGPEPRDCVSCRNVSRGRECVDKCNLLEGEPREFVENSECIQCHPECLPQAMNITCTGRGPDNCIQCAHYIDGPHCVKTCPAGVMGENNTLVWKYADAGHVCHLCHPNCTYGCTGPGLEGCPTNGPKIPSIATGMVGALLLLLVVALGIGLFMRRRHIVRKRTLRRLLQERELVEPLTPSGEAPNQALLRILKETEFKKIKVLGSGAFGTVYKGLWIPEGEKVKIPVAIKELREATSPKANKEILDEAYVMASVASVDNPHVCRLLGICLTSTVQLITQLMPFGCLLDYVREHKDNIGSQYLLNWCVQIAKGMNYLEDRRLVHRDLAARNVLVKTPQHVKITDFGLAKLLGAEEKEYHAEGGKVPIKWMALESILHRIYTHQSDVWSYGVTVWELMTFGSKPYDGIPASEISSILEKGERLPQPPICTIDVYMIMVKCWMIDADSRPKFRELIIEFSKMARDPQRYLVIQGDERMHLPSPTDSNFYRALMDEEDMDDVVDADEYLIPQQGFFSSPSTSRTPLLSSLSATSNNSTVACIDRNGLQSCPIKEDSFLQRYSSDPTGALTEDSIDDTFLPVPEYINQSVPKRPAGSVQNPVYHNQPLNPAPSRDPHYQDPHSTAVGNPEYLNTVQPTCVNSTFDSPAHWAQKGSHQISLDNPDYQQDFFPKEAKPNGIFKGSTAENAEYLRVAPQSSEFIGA

C=CC(=O)N1CCC(Oc2cc3c(NCc4ccccc4)ncnc3cc2OC)CC1 [Compound 123, 1-(4-((4-(benzylamino)-7-methoxyquinazolin-6-yl)oxy)piperidin-1-yl)prop-2-en-1-one]
EC50 [1]: ≤ 200 nM | EC50 [2]: ≤ 200 nM | EC50 [3]: 200 to 1000 nM | EC50 [4]: 200 to 1000 nM | EC50 [5]: ≤ 200 nM | EC50 [6]: 200 to 1000 nM

C#CC(=O)N[C@H]1C[C@H](Oc2cc3c(Nc4cccc5c4CCC5)ncnc3cc2OC)C1 [Compound 44, N-((1r,3r)-3-((4-((2,3-dihydro-1H-inden-4-yl)amino)-7-methoxyquinazolin-6-yl)oxy)cyclobutyl)propiolamide]
EC50 [1]: ≤ 200 nM | EC50 [2]: ≤ 200 nM | EC50 [3]: 200 to 1000 nM | EC50 [4]: 200 to 1000 nM | EC50 [5]: ≤ 200 nM | EC50 [6]: 200 to 1000 nM

C=CC(=O)N1C2CCCC1CC(Oc1cc3c(Nc4cccc5ccccc45)ncnc3cc1OC)C2 (stereo not drawn) [Compound 178, 1-(3-((7-methoxy-4-(naphthalen-1-ylamino)quinazolin-6-yl)oxy)-9-azabicyclo[3.3.1]nonan-9-yl)prop-2-en-1-one]
EC50 [1]: ≤ 200 nM | EC50 [2]: ≤ 200 nM | EC50 [3]: ≤ 200 nM | EC50 [4]: ≤ 200 nM | EC50 [5]: ≤ 200 nM | EC50 [6]: 200 to 1000 nM

C=CC(=O)N1CCC(Oc2cc3c(NCc4cccc(F)c4)ncnc3cc2OC)CC1 [Compound 111, 1-(4-((4-((3-fluorobenzyl)amino)-7-methoxyquinazolin-6-yl)oxy)piperidin-1-yl)prop-2-en-1-one]
EC50 [1]: ≤ 200 nM | EC50 [2]: ≤ 200 nM | EC50 [3]: 200 to 1000 nM | EC50 [4]: ≤ 200 nM | EC50 [5]: ≤ 200 nM | EC50 [6]: 200 to 1000 nM

C=CC(=O)N1CC(c2ccc3ncnc(Nc4ccc(Cl)c(Cl)c4F)c3c2)C1 [Compound 8, 1-(3-(4-((3,4-dichloro-2-fluorophenyl)amino)quinazolin-6-yl)azetidin-1-yl)prop-2-en-1-one]
EC50 [1]: 200 to 1000 nM | EC50 [2]: ≤ 200 nM | EC50 [3]: > 1000 nM | EC50 [4]: 200 to 1000 nM | EC50 [5]: 200 to 1000 nM | EC50 [6]: 200 to 1000 nM

C=CC(=O)NC1CC(Oc2cc3c(Nc4ccc(F)c(C#N)c4)ncnc3cc2OC)C1 (stereo not drawn) [Compound 87, N-(3-((4-((3-cyano-4-fluorophenyl)amino)-7-methoxyquinazolin-6-yl)oxy)cyclobutyl)acrylamide]
EC50 [1]: > 1000 nM | EC50 [2]: 200 to 1000 nM | EC50 [3]: > 1000 nM | EC50 [4]: > 1000 nM | EC50 [5]: > 1000 nM | EC50 [6]: > 1000 nM

C=CC(=O)N1CCC(Oc2cc3c(NCc4ccc(F)cc4)ncnc3cc2OC)CC1 [Compound 172, 1-(4-((4-((4-fluorobenzyl)amino)-7-methoxyquinazolin-6-yl)oxy)piperidin-1-yl)prop-2-en-1-one]
EC50 [1]: 200 to 1000 nM | EC50 [2]: ≤ 200 nM | EC50 [3]: > 1000 nM | EC50 [4]: ≤ 200 nM | EC50 [5]: ≤ 200 nM | EC50 [6]: 200 to 1000 nM

C=CC(=O)NC1CC(Oc2cc3c(Nc4cccc(Cl)c4F)ncnc3cc2OC)C1 (stereo not drawn) [Compound 74, N-(3-((4-((3-chloro-2-fluorophenyl)amino)-7-methoxyquinazolin-6-yl)oxy)cyclobutyl)acrylamide]
EC50 [1]: ≤ 200 nM | EC50 [2]: ≤ 200 nM | EC50 [3]: 200 to 1000 nM | EC50 [4]: ≤ 200 nM | EC50 [5]: ≤ 200 nM | EC50 [6]: 200 to 1000 nM

C=CC(=O)N1CC(c2cc3c(Nc4ccc(Cl)c5ccccc45)ncnc3cc2OC)C1 [Compound 7, 1-(3-(4-((4-chloronaphthalen-1-yl)amino)-7-methoxyquinazolin-6-yl)azetidin-1-yl)prop-2-en-1-one]
EC50 [1]: 200 to 1000 nM | EC50 [2]: ≤ 200 nM | EC50 [3]: ≤ 200 nM | EC50 [4]: > 1000 nM | EC50 [5]: 200 to 1000 nM | EC50 [6]: > 1000 nM

C=CC(=O)N1CCC(Oc2cc3c(NCc4cc(Cl)ccc4Cl)ncnc3cc2OC)CC1 [Compound 119, 1-(4-((4-((2,5-dichlorobenzyl)amino)-7-methoxyquinazolin-6-yl)oxy)piperidin-1-yl)prop-2-en-1-one]
EC50 [1]: > 1000 nM | EC50 [2]: ≤ 200 nM | EC50 [3]: > 1000 nM | EC50 [4]: > 1000 nM | EC50 [5]: > 1000 nM | EC50 [6]: > 1000 nM

C=CC(=O)N1CCC(Oc2cc3c(Nc4ccc5[nH]ccc5c4)ncnc3cc2OC)CC1 [Compound 169, 1-(4-((4-((1H-indol-5-yl)amino)-7-methoxyquinazolin-6-yl)oxy)piperidin-1-yl)prop-2-en-1-one]
EC50 [1]: ≤ 200 nM | EC50 [2]: ≤ 200 nM | EC50 [3]: 200 to 1000 nM | EC50 [4]: ≤ 200 nM | EC50 [5]: ≤ 200 nM | EC50 [6]: 200 to 1000 nM

C=CC(=O)N1CC=C(c2c(OC)cc3ncnc4c3c2N(C)C(=O)N4c2ccc(Cl)c(Cl)c2F)CC1 [Compound 206, 9-(1-acryloyl-1,2,3,6-tetrahydropyridin-4-yl)-3-(3,4-dichloro-2-fluorophenyl)-8-methoxy-1-methyl-1H-pyrimido[4,5,6-de]quinazolin-2(3H)-one]
EC50 [1]: > 1000 nM | EC50 [2]: ≤ 200 nM | EC50 [3]: > 1000 nM | EC50 [4]: 200 to 1000 nM | EC50 [5]: 200 to 1000 nM | EC50 [6]: > 1000 nM

C=CC(=O)N1C2CCC1CC(Oc1cc3c(Nc4ccc5ccccc5c4)ncnc3cc1OC)C2 (stereo not drawn) [Compound 180, 1-(3-((7-methoxy-4-(naphthalen-2-ylamino)quinazolin-6-yl)oxy)-8-azabicyclo[3.2.1]octan-8-yl)prop-2-en-1-one]
EC50 [1]: ≤ 200 nM | EC50 [2]: ≤ 200 nM | EC50 [3]: ≤ 200 nM | EC50 [4]: ≤ 200 nM | EC50 [5]: ≤ 200 nM | EC50 [6]: ≤ 200 nM

C=CC(=O)NC1CC(Oc2cc3c(Nc4cccc5c4CCCC5)ncnc3cc2OC)C1 (stereo not drawn) [Compound 89, N-(3-((7-methoxy-4-((5,6,7,8-tetrahydronaphthalen-1-yl)amino)quinazolin-6-yl)oxy)cyclobutyl)acrylamide]
EC50 [1]: > 1000 nM | EC50 [2]: 200 to 1000 nM | EC50 [3]: > 1000 nM | EC50 [4]: > 1000 nM | EC50 [5]: > 1000 nM | EC50 [6]: > 1000 nM

C=CC(=O)N1CCC(Oc2cc3c(OCc4cccc(Cl)c4)ncnc3cc2OC)CC1 [Compound 107, 1-(4-((4-((3-chlorobenzyl)oxy)-7-methoxyquinazolin-6-yl)oxy)piperidin-1-yl)prop-2-en-1-one]
EC50 [1]: 200 to 1000 nM | EC50 [2]: ≤ 200 nM | EC50 [3]: 200 to 1000 nM | EC50 [4]: > 1000 nM | EC50 [5]: 200 to 1000 nM | EC50 [6]: 200 to 1000 nM

[2H]C([2H])([2H])Oc1cc2ncnc(Nc3ccc(Cl)c(Cl)c3F)c2cc1C1CN(C(=O)C(=C)F)C1 [Compound 39, 1-(3-(4-((3,4-dichloro-2-fluorophenyl)amino)-7-(methoxy-d3)quinazolin-6-yl)azetidin-1-yl)-2-fluoroprop-2-en-1-one]
EC50 [1]: > 1000 nM | EC50 [2]: ≤ 200 nM | EC50 [3]: > 1000 nM | EC50 [4]: > 1000 nM | EC50 [5]: 200 to 1000 nM | EC50 [6]: > 1000 nM

C=CC(=O)N1CCC(Oc2cc3c(NCc4cccc(C)c4)ncnc3cc2OC)CC1 [Compound 121, 1-(4-((7-methoxy-4-((3-methylbenzyl)amino)quinazolin-6-yl)oxy)piperidin-1-yl)prop-2-en-1-one]
EC50 [1]: 200 to 1000 nM | EC50 [2]: ≤ 200 nM | EC50 [3]: 200 to 1000 nM | EC50 [4]: 200 to 1000 nM | EC50 [5]: 200 to 1000 nM | EC50 [6]: 200 to 1000 nM

[2H]C([2H])([2H])Oc1cc2ncnc(Nc3ccc(Cl)c(Cl)c3F)c2cc1C1CN(C(=O)C=C)C1 [Compound 32, 1-(3-(4-((3,4-dichloro-2-fluorophenyl)amino)-7-(methoxy-d3)quinazolin-6-yl)azetidin-1-yl)prop-2-en-1-one]
EC50 [1]: ≤ 200 nM | EC50 [2]: ≤ 200 nM | EC50 [3]: ≤ 200 nM | EC50 [4]: ≤ 200 nM | EC50 [5]: ≤ 200 nM | EC50 [6]: ≤ 200 nM

C=CC(=O)N1CC(c2cc3c(Nc4ccc(Cl)c(Cl)c4F)ncnc3cc2OCC)C1 [Compound 18, 1-(3-(4-((3,4-dichloro-2-fluorophenyl)amino)-7-ethoxyquinazolin-6-yl)azetidin-1-yl)prop-2-en-1-one]
EC50 [1]: ≤ 200 nM | EC50 [2]: ≤ 200 nM | EC50 [3]: ≤ 200 nM | EC50 [4]: ≤ 200 nM | EC50 [5]: ≤ 200 nM | EC50 [6]: ≤ 200 nM

C=CC(=O)N1CCC(Oc2c(OC)cc3ncnc4c3c2C=CN4c2ccc(Cl)c(Cl)c2F)CC1 [Compound 218, 1-(4-((4-(3,4-dichloro-2-fluorophenyl)-8-methoxy-4H-pyrido[2,3,4-de]quinazolin-7-yl)oxy)piperidin-1-yl)prop-2-en-1-one]
EC50 [1]: ≤ 200 nM | EC50 [2]: ≤ 200 nM | EC50 [3]: 200 to 1000 nM | EC50 [4]: > 1000 nM | EC50 [5]: ≤ 200 nM | EC50 [6]: 200 to 1000 nM
